US20190110476A1, “NOVEL ISOTHIAZOLAMIDES, PROCESSES FOR THEIR PREPARATION AND THEIR USE AS FUNGICIDES” (priority 2014, published 2019)
Marks after values point to notes of the source that are not given here.

Experiment: Measurement of LogP values by HPLC on reversed phase columns (EEC directive 79/831 Annex V.A8)
Format: physicochemical
Conditions: not given
Description: The abbreviations and numerations of the substituent positions used in the context of the present invention and in the following Tables are explained in detail in the section Examples hereinafter. Also, the LogP values indicated in the following Tables are explained in detail in the section Examples hereinafter. In case LogP values for different diastereoisomers of a specific compound are […], said LogP values are […] by a “+”. […] Measurement of LogP values was performed according to EEC directive 79/831 Annex V.A8 by HPLC (High Performance Liquid Chromatography) on reversed phase columns with the following methods: […] Lambda-max-values were determined using UV-spectra from 200 nm to 400 nm and the peak values of the chromatographic signals

Compound	LogP	LogP [a]	LogP [b]
C[C@@H]1CCCC[C@H]1NC(=O)c1snc(N)c1Br (relative stereo) [I-838]	2.34[a]		
C[C@@H]1CCCC[C@H]1NC(=O)c1snc(N)c1Br (relative stereo) [I-839]	2.49[a]		
C[C@H]1[C@H](CNC(=O)c2snc(N)c2Cl)CCC[C@H]1C (relative stereo) [I-1291]	3.10[a]		
C[C@H]1CCCC[C@H]1NC(=O)c1snc(N)c1F (relative stereo) [I-1356]	2.11[a]		
C[C@@H]1CCCC[C@H]1NC(=O)c1snc(N)c1F (relative stereo) [I-1357]	2.21[a]		
C[C@H]1CCCC[C@H]1CNC(=O)c1snc(N)c1I (relative stereo) [I-1540]	2.73[a]		
C[C@H]1CCCC[C@H]1CNC(=O)c1snc(N)c1I (relative stereo) [I-1541]	2.67[a]		
COc1ccc(CNc2nsc(C(=O)N[C@@H]3CCCC[C@@H]3C)c2Cl)cc1 (relative stereo) [I-1550]	4.18[a]		
COc1ccc(CNc2nsc(C(=O)N[C@@H]3CCCC[C@H]3C)c2Cl)cc1 (relative stereo) [I-1551]	4.39[a]		
Nc1nsc(C(=O)N[C@@H]2CCCC[C@H]2Cl)c1I (relative stereo) [I-1565]	2.12[a]		
Cc1c(N)nsc1C(=O)NCC1CCCC1O (single isomer, unassigned) [I-706]	0.79[a]		
Cc1c(N)nsc1C(=O)NCC1CCCC1O (single isomer, unassigned) [I-707]	0.82[a]		
Nc1nsc(C(=O)NCC2CCCC2O)c1Cl (single isomer, unassigned) [I-772]	1.09[a]		
Nc1nsc(C(=O)NCC2CCCC2O)c1Cl (single isomer, unassigned) [I-773]	0.88[a]		
C[C@H](NC(=O)c1snc(Cl)c1Cl)C1CCCCC1 [E-II-002]		4.56^[a]	
O=C(NCc1ccccc1Cl)c1snc(Cl)c1Cl [E-II-003]		3.52^[a]	
O=C(NCC1CCOCC1)c1snc(Cl)c1Cl [E-II-004]		2.05^[a]	
O=C(NCC1CCCOC1)c1snc(Cl)c1Cl (stereo not shown) [E-II-005]		2.18^[a]	
O=C(NCC1CCCO1)c1snc(Cl)c1Cl (stereo not shown) [E-II-006]		2.20^[a]	
O=C(NCC1CCOC1)c1snc(Cl)c1Cl (stereo not shown) [E-II-007]		1.84^[a]	
O=C(NCc1ccccc1F)c1snc(Cl)c1Cl [E-II-008]		3.23^[a]	
O=C(NCC1CCCCO1)c1snc(Cl)c1Cl (stereo not shown) [E-II-010]		2.87^[a]	
O=C(NCc1cc(F)ccc1F)c1snc(Cl)c1Cl [E-II-011]		3.17^[a]	
O=C(NC1CCCC2CCCCC21)c1snc(Cl)c1Cl (stereo not shown) [E-II-012]		5.34^[a]	

Compound	LogP	LogP [a]	LogP [b]
CC(C)(NC(=O)c1snc(Cl)c1Cl)C1CCCCC1 [E-II-013]		5.39^[a]	
O=C(c1snc(Cl)c1Cl)N(Cc1ccc(F)cc1F)C1CC1 [E-II-014]		4.01^[a]	
Cc1ccc(C(C)(C)C)c(CN(C(=O)c2snc(Cl)c2Cl)C2CC2)c1 [E-II-015]		5.65^[a]	
O=C(NCC1CCC(C(=O)NC2CC2)CC1)c1snc(Cl)c1Cl (stereo not shown) [E-II-016]		2.21^[a]	
CC1(C)C2CCC1(C)C(NC(=O)c1snc(Cl)c1Cl)C2 (stereo not shown) [E-II-017]		5.02	4.96
CN1C2CCC1CC(NC(=O)c1snc(Cl)c1Cl)C2 (stereo not shown) [E-II-018]		0.66^[a]	
O=C(NC1CCc2ccccc21)c1snc(Cl)c1Cl (stereo not shown) [E-II-020]		3.70	3.63
O=C(NC1CCCc2ccccc21)c1snc(Cl)c1Cl (stereo not shown) [E-II-021]		4.07	3.98
CC1(C)C2CCC1(C)C(NC(=O)c1snc(Cl)c1Cl)C2 (stereo not shown) [E-II-022]		5.07	4.94
CC1(C)C2CCC(CNC(=O)c3snc(Cl)c3Cl)C1C2 (stereo not shown) [E-II-023]		5.13	5.02
CC1CCC(C(C)C)C(NC(=O)c2snc(Cl)c2Cl)C1 (stereo not shown) [E-II-024]		5.72	5.64
O=C(NC1CCCC2CCCCC21)c1snc(Cl)c1Cl (stereo not shown) [E-II-025]		5.27^[a]	
O=C(NC1CCCC2CCCCC21)c1snc(Cl)c1Cl (stereo not shown) [E-II-026]		5.43^[a]	
CON(C(=O)c1snc(Cl)c1Cl)C(C)C1CCCCC1 (stereo not shown) [E-II-028]		5.27	5.09
O=C(NC(CCc1ccccc1)C1CCC1)c1snc(Cl)c1Cl (stereo not shown) [E-II-029]		5.04	4.91
COC(=O)CC(NC(=O)c1snc(Cl)c1Cl)C1CCCCC1 (stereo not shown) [E-II-030]		4.03	3.95
O=C(NC(c1ccccc1)C1CCCCC1)c1snc(Cl)c1Cl (stereo not shown) [E-II-031]		5.19	5.05
CC(NC(=O)c1snc(Cl)c1Cl)C1CCCO1 (stereo not shown) [E-II-032]		2.72	2.69
O=C(NCCC1CCCCC1)c1snc(Cl)c1Cl [E-II-033]		4.40^[a]	
O=C(NC(Cc1ccccc1)C1CC=CCC1)c1snc(Cl)c1Cl (stereo not shown) [E-II-034]		4.87	4.75
COC(=O)c1snc(N)c1Cl [E-VII-001]		1.42^[a]	
COc1ccc(CNc2nsc(C(=O)OC(C)(C)C)c2Cl)cc1 [E-VII-002]		4.74^[a]	
CC(C)(C)OC(=O)c1snc(N)c1Cl [E-VII-003]		2.66^[a]	
COc1ccc(CNc2nsc(C(=O)OC(C)C)c2Cl)cc1 [E-VII-004]		4.36^[a]	

Compound	LogP	LogP [a]	LogP [b]
CC(C)OC(=O)c1snc(N)c1Cl [E-VII-005]		2.17	2.16
COC(=O)c1snc(N=C(c2ccccc2)c2ccccc2)c1Cl [E-VII-006]		4.40^[a]	
CCOC(=O)c1snc(NC(=O)c2ccc(F)cc2)c1Cl [E-VII-010]		2.62^[a]	
CC(C)OC(=O)c1snc(N(C(=O)OC(C)(C)C)C(=O)OC(C)(C)C)c1Cl [E-VII-011]		5.00^[a]	
CCOC(=O)c1snc(N(Cc2ccccc2)Cc2ccccc2)c1Cl [E-VII-013]		5.73^[a]	
CCOC(=O)c1snc(NC(=O)C(C)(C)C)c1Cl [E-VII-018]		2.48^[a]	
CCOC(=O)c1snc(NC(=O)c2ccccc2)c1Cl [E-VII-020]		2.45^[a]	
CCOC(=O)c1snc(N(C(C)=O)C(C)=O)c1Cl [E-VII-022]		2.47^[a]	
CCOC(=O)c1snc(N(Cc2ccccc2)Cc2ccccc2)c1-c1ccc(F)cc1 [E-VII-031]		6.11^[a]	
CCOC(=O)c1snc(N)c1Br [E-VII-060]		1.93^[a]	
COc1ccc(CNc2nsc(C(=O)OC(C)C)c2NCc2ccc(OC)cc2)cc1 [E-VII-063]		4.56	4.51
CCOC(=O)c1snc(NCc2ccc(OC)cc2)c1Cl [E-VII-069]		3.87^[a]	
COc1ccc(CNc2cc(C(=O)OC(C)C)sn2)cc1 [E-VII-070]		3.63^[a]	
CC(C)(C)OC(=O)Nc1nsc(C(=O)O)c1Cl [E-VIII-001]		1.35^[a]	
COc1ccc(CNc2nsc(C(=O)O)c2Cl)cc1 [E-VIII-002]		2.21^[a]	
O=C(O)c1snc(N(Cc2ccccc2)Cc2ccccc2)c1Br [E-VIII-004]		3.83^[a]	
O=C(O)c1snc(N(Cc2ccccc2)Cc2ccccc2)c1Cl [E-VIII-005]		3.75^[a]	
O=C(Nc1nsc(C(=O)O)c1Cl)c1ccc(F)cc1 [E-VIII-007]		1.02^[a]	
O=C(O)c1snc(N(Cc2ccccc2)Cc2ccccc2)c1-c1ccc(F)cc1 [E-VIII-010]		4.49^[a]	
COc1ccc(CNc2cc(C(=O)O)sn2)cc1 [E-VIII-016]		1.87^[a]	
Nc1nsc(C(=O)NC2CCCCC2)c1Cl [I-001]	2.10[a]		
Nc1nsc(C(=O)NCC2CCCCC2)c1Cl [I-002]	2.40[a]		

Same assay, conditions: HPLC LC-UV, acidic range, 0.1% formic acid in water and acetonitrile as eluent

Compound	chromatographic logP
O=C(NCC1CCCCC1)c1snc(Cl)c1Cl [E-II-001, 3,4-dichloro-N-(cyclohexylmethyl)isothiazole-5-carboxamide]	4.11
CCOC(=O)c1snc(N(Cc2ccccc2)Cc2ccccc2)c1Br [E-VII-008, ethyl 4-bromo-3-(dibenzylamino)-1,2-thiazole-5-carboxylate]	5.8
CCOC(=O)c1cc(N(Cc2ccccc2)Cc2ccccc2)ns1 [E-VII-012, ethyl 3-(dibenzylamino)-1,2-thiazole-5-carboxylate]	5.13
CCOC(=O)c1snc(N(Cc2ccccc2)Cc2ccccc2)c1C(F)F [E-VII-023, ethyl 3-(dibenzylamino)-4-(difluoromethyl)-1,2-thiazole-5-carboxylate]	5.68
CCOC(=O)c1snc(N(Cc2ccccc2)Cc2ccccc2)c1C1CC1 [E-VII-024, ethyl 4-cyclopropyl-3-(dibenzylamino)isothiazole-5-carboxylate]	5.91
O=C(O)c1cc(N(Cc2ccccc2)Cc2ccccc2)ns1 [E-VIII-003, 3-(dibenzylamino)-1,2-thiazole-5-carboxylic acid]	3.35
O=Cc1c(N(Cc2ccccc2)Cc2ccccc2)nsc1C(=O)O [E-VIII-006, 3-(dibenzylamino)-4-formyl-1,2-thiazole-5-carboxylic acid]	3.21
O=C(O)c1snc(N(Cc2ccccc2)Cc2ccccc2)c1C1CC1 [E-VIII-008, 4-cyclopropyl-3-(dibenzylamino)isothiazole-5-carboxylic acid]	4.11
O=C(O)c1snc(N(Cc2ccccc2)Cc2ccccc2)c1C(F)F [E-VIII-009, 3-(dibenzylamino)-4-(difluoromethyl)-1,2-thiazole-5-carboxylic acid]	3.78
Nc1nsc(C(=O)O)c1Cl [E-VIII-012, 3-amino-4-chloroisothiazole-5-carboxylic acid]	-0.13
